Measured values reported in ChEMBL document CHEMBL4507289, “Data for DCP probe GSM1” (2021).

Legend:
[1] = target: cAMP-dependent protein kinase catalytic subunit PRKX (Homo sapiens) (UniProt P51817); details: Compound concentration 1000.0 nM
[2] = target: Serine/threonine-protein kinase PLK1 (Homo sapiens) (UniProt P53350); details: Compound concentration 1000.0 nM
[3] = tested on: Tyrosine-protein kinase ABL1 (Homo sapiens), P00519 [Q252H]; details: Compound concentration 1000.0 nM
[4] = target: Receptor-type tyrosine-protein kinase FLT3 (Homo sapiens) (UniProt P36888); details: Compound concentration 1000.0 nM
[5] = target: Serine/threonine-protein kinase PAK 1 (Homo sapiens) (UniProt Q13153); details: Compound concentration 1000.0 nM
[6] = target: Ribosomal protein S6 kinase alpha-2 (Homo sapiens) (UniProt Q15349); details: Compound concentration 1000.0 nM
[7] = target: Serine/threonine-protein kinase PknB (Mycobacterium tuberculosis) (UniProt P9WI81); details: Compound concentration 1000.0 nM
[8] = target: Serine/threonine-protein kinase RIO1 (Homo sapiens) (UniProt Q9BRS2); details: Compound concentration 1000.0 nM
[9] = target: Serine/threonine-protein kinase ULK3 (Homo sapiens) (UniProt Q6PHR2); details: Compound concentration 1000.0 nM
[10] = target: Serine/threonine-protein kinase OSR1 (Homo sapiens) (UniProt O95747); details: Compound concentration 1000.0 nM
[11] = target: Cyclin-dependent kinase 18 (Homo sapiens) (UniProt Q07002); details: Compound concentration 1000.0 nM
[12] = target: Aurora kinase A (Homo sapiens) (UniProt O14965); details: Compound concentration 1000.0 nM
[13] = target: Cyclin-dependent kinase 9 (Homo sapiens) (UniProt P50750); details: Compound concentration 1000.0 nM
[14] = target: Mitogen-activated protein kinase 12 (Homo sapiens) (UniProt P53778); details: Compound concentration 1000.0 nM
[15] = target: Cyclin-dependent kinase 13 (Homo sapiens) (UniProt Q14004); details: Compound concentration 1000.0 nM
[16] = target: Protein kinase C eta type (Homo sapiens) (UniProt P24723); details: Compound concentration 1000.0 nM
[17] = target: Homeodomain-interacting protein kinase 1 (Homo sapiens) (UniProt Q86Z02); details: Compound concentration 1000.0 nM
[18] = target: Notch receptor (Homo sapiens, UniProt P46531+Q9UM47+Q04721+Q99466); test: Notch assay; assay type: protein assay
[19] = target: Tyrosine-protein kinase ABL2 (Homo sapiens) (UniProt P42684); details: Compound concentration 1000.0 nM
[20] = target: Mitotic checkpoint serine/threonine-protein kinase BUB1 (Homo sapiens) (UniProt O43683); details: Compound concentration 1000.0 nM
[21] = target: Proto-oncogene tyrosine-protein kinase Src (Homo sapiens) (UniProt P12931); details: Compound concentration 1000.0 nM
[22] = target: Serine/threonine-protein kinase pim-1 (Homo sapiens) (UniProt P11309); details: Compound concentration 1000.0 nM
[23] = tested on: Receptor-type tyrosine-protein kinase FLT3 (Homo sapiens), P36888 [D835H]; details: Compound concentration 1000.0 nM
[24] = tested on: Fibroblast growth factor receptor 3 (Homo sapiens), P22607 [G697C]; details: Compound concentration 1000.0 nM
[25] = target: Mitogen-activated protein kinase 6 (Homo sapiens) (UniProt Q16659); details: Compound concentration 1000.0 nM
[26] = target: 5-hydroxytryptamine receptor 2B (Homo sapiens) (UniProt P41595); details: Compound concentration 10.0 uM
[27] = target: Tyrosine-protein kinase BTK (Homo sapiens) (UniProt Q06187); details: Compound concentration 1000.0 nM
[28] = target: MAP/microtubule affinity-regulating kinase 3 (Homo sapiens) (UniProt P27448); details: Compound concentration 1000.0 nM
[29] = target: TGF-beta receptor type-2 (Homo sapiens) (UniProt P37173); details: Compound concentration 1000.0 nM
[30] = target: RAC-gamma serine/threonine-protein kinase (Homo sapiens) (UniProt Q9Y243); details: Compound concentration 1000.0 nM
[31] = target: 5-hydroxytryptamine receptor 7 (Homo sapiens) (UniProt P34969); details: Compound concentration 10.0 uM
[32] = target: Sodium-dependent noradrenaline transporter (Homo sapiens, UniProt P23975); details: Compound concentration 10.0 uM
[33] = target: Tyrosine-protein kinase JAK1 (Homo sapiens) (UniProt P23458); details: Compound concentration 1000.0 nM
[34] = target: Non-receptor tyrosine-protein kinase TYK2 (Homo sapiens) (UniProt P29597); details: Compound concentration 1000.0 nM
[35] = target: Beta-adrenergic receptor kinase 1 (Homo sapiens) (UniProt P25098); details: Compound concentration 1000.0 nM
[36] = target: Cyclin-dependent kinase-like 3 (Homo sapiens) (UniProt Q8IVW4); details: Compound concentration 1000.0 nM
[37] = target: Receptor-interacting serine/threonine-protein kinase 1 (Homo sapiens) (UniProt Q13546); details: Compound concentration 1000.0 nM
[38] = target: Serine/threonine-protein kinase Sgk1 (Homo sapiens) (UniProt O00141); details: Compound concentration 1000.0 nM
[39] = tested on: eIF-2-alpha kinase GCN2 (Homo sapiens), Q9P2K8 [S808G]; details: Compound concentration 1000.0 nM
[40] = target: Cyclin-dependent kinase 8 (Homo sapiens) (UniProt P49336); details: Compound concentration 1000.0 nM
[41] = target: Dual specificity mitogen-activated protein kinase kinase 5 (Homo sapiens) (UniProt Q13163); details: Compound concentration 1000.0 nM
[42] = target: Ribosomal protein S6 kinase alpha-4 (Homo sapiens) (UniProt O75676); details: Compound concentration 1000.0 nM
[43] = target: Phosphatidylinositol 4-kinase beta (Homo sapiens) (UniProt Q9UBF8); details: Compound concentration 1000.0 nM
[44] = target: High affinity nerve growth factor receptor (Homo sapiens) (UniProt P04629); details: Compound concentration 1000.0 nM
[45] = target: Non-receptor tyrosine-protein kinase TYK2 (Homo sapiens) (UniProt P29597); details: Compound concentration 1000.0 nM; remark: listed apart in the source
[46] = target: Mitogen-activated protein kinase 15 (Homo sapiens) (UniProt Q8TD08); details: Compound concentration 1000.0 nM

Non-receptor tyrosine-protein kinase TYK2 (Homo sapiens), sequence (P29597 whole entry): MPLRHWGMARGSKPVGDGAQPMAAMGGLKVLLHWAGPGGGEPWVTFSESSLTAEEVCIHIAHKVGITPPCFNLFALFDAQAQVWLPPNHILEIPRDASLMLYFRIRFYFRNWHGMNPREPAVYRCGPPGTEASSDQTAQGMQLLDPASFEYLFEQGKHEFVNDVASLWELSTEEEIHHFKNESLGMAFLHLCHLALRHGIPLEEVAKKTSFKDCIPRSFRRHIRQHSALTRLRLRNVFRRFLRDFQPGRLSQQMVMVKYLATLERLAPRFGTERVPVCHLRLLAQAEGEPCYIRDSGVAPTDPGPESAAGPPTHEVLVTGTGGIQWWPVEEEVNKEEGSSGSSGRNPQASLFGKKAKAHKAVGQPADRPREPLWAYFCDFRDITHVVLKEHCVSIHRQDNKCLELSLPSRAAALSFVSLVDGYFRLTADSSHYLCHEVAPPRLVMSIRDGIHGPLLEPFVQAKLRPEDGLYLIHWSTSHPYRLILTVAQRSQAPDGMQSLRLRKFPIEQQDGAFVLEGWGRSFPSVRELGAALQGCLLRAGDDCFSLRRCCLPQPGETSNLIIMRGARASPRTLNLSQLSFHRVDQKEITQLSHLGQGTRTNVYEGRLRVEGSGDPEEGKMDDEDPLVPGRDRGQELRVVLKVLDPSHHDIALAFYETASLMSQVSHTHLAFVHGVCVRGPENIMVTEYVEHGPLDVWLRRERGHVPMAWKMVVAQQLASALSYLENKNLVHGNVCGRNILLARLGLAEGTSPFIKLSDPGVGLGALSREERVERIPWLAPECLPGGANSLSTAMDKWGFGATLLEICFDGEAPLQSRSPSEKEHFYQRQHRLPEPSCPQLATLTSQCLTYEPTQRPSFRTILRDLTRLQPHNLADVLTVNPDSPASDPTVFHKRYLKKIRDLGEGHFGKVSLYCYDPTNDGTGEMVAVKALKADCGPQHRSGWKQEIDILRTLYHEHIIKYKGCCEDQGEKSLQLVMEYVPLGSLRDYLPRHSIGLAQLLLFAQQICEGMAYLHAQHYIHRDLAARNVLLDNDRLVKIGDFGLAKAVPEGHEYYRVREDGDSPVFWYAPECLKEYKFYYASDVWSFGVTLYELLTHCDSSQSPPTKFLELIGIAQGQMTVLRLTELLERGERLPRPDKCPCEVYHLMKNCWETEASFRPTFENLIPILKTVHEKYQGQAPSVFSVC
Sodium-dependent noradrenaline transporter, sequence (P23975 whole entry): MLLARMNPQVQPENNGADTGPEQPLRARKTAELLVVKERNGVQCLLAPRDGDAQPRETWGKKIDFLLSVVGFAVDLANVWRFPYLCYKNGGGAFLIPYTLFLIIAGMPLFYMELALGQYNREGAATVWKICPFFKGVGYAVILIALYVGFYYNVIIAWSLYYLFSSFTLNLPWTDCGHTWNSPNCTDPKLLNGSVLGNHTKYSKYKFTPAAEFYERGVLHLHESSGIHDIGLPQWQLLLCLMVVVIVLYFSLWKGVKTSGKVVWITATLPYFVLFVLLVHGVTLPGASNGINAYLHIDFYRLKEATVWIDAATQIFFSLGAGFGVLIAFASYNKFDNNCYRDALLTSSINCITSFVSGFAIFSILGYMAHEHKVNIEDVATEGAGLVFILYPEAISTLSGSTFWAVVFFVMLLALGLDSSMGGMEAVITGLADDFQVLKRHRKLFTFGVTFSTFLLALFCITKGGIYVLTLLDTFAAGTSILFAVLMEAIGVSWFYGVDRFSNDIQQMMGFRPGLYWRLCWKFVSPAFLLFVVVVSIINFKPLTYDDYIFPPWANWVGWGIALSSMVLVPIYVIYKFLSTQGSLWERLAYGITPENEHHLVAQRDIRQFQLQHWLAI
High affinity nerve growth factor receptor (Homo sapiens), sequence (P04629 33-796 limits assumed): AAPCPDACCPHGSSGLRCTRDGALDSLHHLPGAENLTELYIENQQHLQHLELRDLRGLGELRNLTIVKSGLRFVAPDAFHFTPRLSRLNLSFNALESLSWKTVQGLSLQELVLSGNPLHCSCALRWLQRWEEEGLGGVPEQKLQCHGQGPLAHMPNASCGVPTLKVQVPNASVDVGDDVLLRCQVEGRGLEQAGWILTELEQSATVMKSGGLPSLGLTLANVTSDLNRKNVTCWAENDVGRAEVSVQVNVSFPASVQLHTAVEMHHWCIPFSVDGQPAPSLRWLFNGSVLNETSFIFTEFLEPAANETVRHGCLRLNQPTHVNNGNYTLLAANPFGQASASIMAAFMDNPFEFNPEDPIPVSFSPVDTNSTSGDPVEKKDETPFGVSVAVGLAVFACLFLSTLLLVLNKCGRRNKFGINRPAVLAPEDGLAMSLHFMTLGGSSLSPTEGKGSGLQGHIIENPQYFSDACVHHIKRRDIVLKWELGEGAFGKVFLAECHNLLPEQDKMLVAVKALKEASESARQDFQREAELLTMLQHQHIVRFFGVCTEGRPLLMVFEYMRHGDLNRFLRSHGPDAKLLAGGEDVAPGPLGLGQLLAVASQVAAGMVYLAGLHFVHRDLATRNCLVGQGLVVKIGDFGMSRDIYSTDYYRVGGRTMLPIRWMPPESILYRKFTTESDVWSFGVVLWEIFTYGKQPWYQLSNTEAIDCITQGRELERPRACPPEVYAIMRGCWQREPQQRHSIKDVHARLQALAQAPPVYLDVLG
Serine/threonine-protein kinase RIO1 (Homo sapiens), sequence (Q9BRS2 whole entry): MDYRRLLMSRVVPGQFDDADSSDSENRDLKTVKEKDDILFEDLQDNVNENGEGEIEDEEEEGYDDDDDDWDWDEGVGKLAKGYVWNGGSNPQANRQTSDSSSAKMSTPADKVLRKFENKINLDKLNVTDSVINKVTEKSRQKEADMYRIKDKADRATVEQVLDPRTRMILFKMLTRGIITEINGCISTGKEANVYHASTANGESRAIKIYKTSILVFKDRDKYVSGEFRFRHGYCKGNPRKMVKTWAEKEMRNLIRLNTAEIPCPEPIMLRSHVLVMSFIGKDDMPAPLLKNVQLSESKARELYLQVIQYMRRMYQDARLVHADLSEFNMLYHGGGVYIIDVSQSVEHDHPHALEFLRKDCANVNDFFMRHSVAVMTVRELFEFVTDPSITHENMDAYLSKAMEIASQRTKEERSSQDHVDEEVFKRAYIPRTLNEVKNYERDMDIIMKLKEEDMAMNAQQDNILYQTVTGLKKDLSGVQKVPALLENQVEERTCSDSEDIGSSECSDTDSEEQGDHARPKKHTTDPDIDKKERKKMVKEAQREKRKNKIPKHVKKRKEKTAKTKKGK
eIF-2-alpha kinase GCN2 (Homo sapiens), Q9P2K8 [S808G], sequence (Q9P2K8 whole entry S808G): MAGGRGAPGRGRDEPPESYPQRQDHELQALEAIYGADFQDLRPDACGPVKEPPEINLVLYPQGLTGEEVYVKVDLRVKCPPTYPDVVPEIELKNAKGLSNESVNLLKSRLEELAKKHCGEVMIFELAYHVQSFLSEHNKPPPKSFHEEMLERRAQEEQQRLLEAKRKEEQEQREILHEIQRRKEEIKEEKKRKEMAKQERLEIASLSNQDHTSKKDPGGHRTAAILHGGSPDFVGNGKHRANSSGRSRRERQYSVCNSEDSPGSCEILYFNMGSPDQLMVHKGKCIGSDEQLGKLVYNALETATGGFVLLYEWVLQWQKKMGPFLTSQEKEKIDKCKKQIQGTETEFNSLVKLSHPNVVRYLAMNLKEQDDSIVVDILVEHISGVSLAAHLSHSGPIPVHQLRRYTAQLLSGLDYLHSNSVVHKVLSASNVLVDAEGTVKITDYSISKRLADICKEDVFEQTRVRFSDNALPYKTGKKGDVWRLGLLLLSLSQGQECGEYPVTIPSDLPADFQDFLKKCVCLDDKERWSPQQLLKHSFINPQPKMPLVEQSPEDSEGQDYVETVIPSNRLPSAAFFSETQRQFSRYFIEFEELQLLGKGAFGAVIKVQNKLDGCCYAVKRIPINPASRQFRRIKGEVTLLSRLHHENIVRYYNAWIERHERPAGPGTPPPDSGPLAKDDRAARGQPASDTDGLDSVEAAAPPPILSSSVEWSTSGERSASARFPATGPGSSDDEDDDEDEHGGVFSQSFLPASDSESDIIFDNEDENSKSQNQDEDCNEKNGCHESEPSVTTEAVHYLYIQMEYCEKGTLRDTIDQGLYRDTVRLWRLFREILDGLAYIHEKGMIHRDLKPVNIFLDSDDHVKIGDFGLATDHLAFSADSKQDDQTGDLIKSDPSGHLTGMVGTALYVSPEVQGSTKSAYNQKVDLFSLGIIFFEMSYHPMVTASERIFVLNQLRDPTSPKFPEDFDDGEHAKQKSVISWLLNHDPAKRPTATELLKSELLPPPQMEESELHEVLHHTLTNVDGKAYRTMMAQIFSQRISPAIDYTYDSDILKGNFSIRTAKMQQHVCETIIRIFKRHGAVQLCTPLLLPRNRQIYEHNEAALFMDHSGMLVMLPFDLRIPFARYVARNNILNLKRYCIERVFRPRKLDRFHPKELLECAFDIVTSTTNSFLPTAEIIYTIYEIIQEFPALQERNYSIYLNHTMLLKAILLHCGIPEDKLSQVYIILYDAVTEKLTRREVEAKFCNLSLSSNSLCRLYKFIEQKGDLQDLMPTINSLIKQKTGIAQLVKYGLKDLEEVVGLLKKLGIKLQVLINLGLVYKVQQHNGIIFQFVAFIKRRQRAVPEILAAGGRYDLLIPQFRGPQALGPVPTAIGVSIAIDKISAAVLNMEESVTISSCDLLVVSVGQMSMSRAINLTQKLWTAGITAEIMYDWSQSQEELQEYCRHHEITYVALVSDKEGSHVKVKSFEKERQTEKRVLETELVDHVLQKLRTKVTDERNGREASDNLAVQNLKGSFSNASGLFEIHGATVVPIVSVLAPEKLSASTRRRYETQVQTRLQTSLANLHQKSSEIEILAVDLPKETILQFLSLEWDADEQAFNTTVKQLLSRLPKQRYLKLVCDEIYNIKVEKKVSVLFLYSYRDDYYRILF
Serine/threonine-protein kinase pim-1 (Homo sapiens), sequence (P11309 whole entry, looked up): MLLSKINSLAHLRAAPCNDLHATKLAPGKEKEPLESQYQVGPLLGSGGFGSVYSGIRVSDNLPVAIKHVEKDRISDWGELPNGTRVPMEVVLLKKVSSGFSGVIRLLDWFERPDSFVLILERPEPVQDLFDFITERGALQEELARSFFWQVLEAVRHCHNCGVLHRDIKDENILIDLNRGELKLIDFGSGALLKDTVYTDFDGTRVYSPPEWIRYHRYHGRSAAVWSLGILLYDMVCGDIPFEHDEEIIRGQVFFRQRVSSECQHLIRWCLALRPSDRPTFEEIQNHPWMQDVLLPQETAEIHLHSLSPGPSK

What does the source list for COc1cc(-c2cn([C@H]3CCc4ccccc4N(CC(F)(F)F)C3=O)nn2)ccc1-n1ccc(C)n1?
residual activity [1]: 95%; residual activity [2]: 84%; residual activity [3]: 71%; residual activity [4]: 89%; residual activity [5]: 100%; residual activity [6]: 99%; residual activity [7]: 78%; residual activity [8]: 100%; residual activity [9]: 61%; residual activity [10]: 91%; residual activity [11]: 100%; residual activity [12]: 58%; residual activity [13]: 100%; residual activity [14]: 100%; residual activity [15]: 100%; residual activity [16]: 73%; residual activity [17]: 96%; IC50 [18]: > 50 µM; residual activity [19]: 100%; residual activity [20]: 94%; residual activity [21]: 100%; residual activity [22]: 100%; residual activity [23]: 100%; residual activity [24]: 90%; residual activity [25]: 100%; inhibition [26]: 6.39%; residual activity [27]: 82%; residual activity [28]: 100%; residual activity [29]: 100%; residual activity [30]: 89%; inhibition [31]: 5.84%; inhibition [32]: 49.4%; residual activity [33]: 80%; residual activity [34]: 100%; residual activity [35]: 87%; residual activity [36]: 88%; residual activity [37]: 100%; residual activity [38]: 88%; residual activity [39]: 100%; residual activity [40]: 90%; residual activity [41]: 74%; residual activity [42]: 97%; residual activity [43]: 87%; residual activity [44]: 63%; residual activity [45]: 100%; residual activity [46]: 100%

Which results are given for COc1cc(-c2cn([C@H]3CCc4c(F)cccc4N(CC(F)(F)F)C3=O)nn2)ccc1-n1cnc(C)c1?
residual activity [1]: 100%; residual activity [2]: 100%; residual activity [3]: 100%; residual activity [4]: 100%; residual activity [5]: 93%; residual activity [6]: 100%; residual activity [7]: 82%; residual activity [8]: 96%; residual activity [9]: 63%; residual activity [10]: 100%; residual activity [11]: 100%; residual activity [12]: 100%; residual activity [13]: 97%; residual activity [14]: 79%; residual activity [15]: 99%; residual activity [16]: 100%; residual activity [17]: 100%; IC50 [18]: 397.8 µM; residual activity [19]: 100%; residual activity [20]: 100%; residual activity [21]: 93%; residual activity [22]: 96%; residual activity [23]: 98%; residual activity [24]: 100%; residual activity [25]: 100%; inhibition [26]: 5.58%; residual activity [27]: 100%; residual activity [28]: 100%; residual activity [29]: 100%; residual activity [30]: 100%; inhibition [31]: 26.8%; inhibition [32]: 87.1%; residual activity [33]: 100%; residual activity [34]: 100%; residual activity [35]: 100%; residual activity [36]: 100%; residual activity [37]: 100%; residual activity [38]: 90%; residual activity [39]: 100%; residual activity [40]: 100%; residual activity [41]: 58%; residual activity [42]: 100%; residual activity [43]: 79%; residual activity [44]: 81%; residual activity [45]: 100%; residual activity [46]: 78%
